Source: patent US20250073338A1, “CONJUGATE COMPOUNDS AND COMPOSITIONS” (REZUBIO PHARMACEUTICALS CO., LTD, priority 2023, published 2025)
Counter-ions that a name gives are not always drawn.

Assays:
GPR40 = target: T1, GPR40 (Homo sapiens, UniProt O14842); experiment: IP1 accumulation assay in HEK293 cells stably expressing GPR40; format: cell-based; details: HEK293 cells stably expressing GPR40, 2 hours at 37° C.
T1 construct: expressed in transfected cells
Procedure: IP1 accumulation assay was used to evaluate the potency of compounds. HEK293 cells stably expressing GPR40 were cultured in 5% CO2 incubator (ThermoFisher) in maintenance media (Dulbecco's modified Eagle's medium with 4.5 g/L of glucose, 10% fetal bovine serum, 100 μg/mL Hygromycin, and Penicillin (100 U/mL)/Streptomycin (100 μg/mL)) till 100% confluency. Cells were harvested freshly, spun down at 300× g for 5 min, and resuspended in pre-warmed 1× stimulant buffer from Cisbio IP-One HTRF Detection kit (Cisbio). Cell density was adjusted to 2.0×10^6 cells/mL. DMSO was used as blank control and AMG-1638 (CAS #: 1142214-62-7) as positive control. Compounds were prepared at 10 mM in DMSO and 5 nL of 3× serially diluted compounds (10 concentrations) were added to each well of the 384-LDV assay plate (Corning) by using ECHO 550 (Labcyte). Five μL of cells in suspension were transferred into each well by using Multidrop Combi Reagent Dispenser (ThermoFisher). Assay plate was then sealed and incubated at 37° C. for 2 hours. IP-d2 reagent and anti-IP1 reagent were prepared following the manual (Cisbio). Five μL of IP1-d2 and then 5 μL of anti-IP1 antibody was added to each well sequentially. Assay plate was incubated at room temperature for 60 min and then read at 665 nm/615 nm on an Envision plate reader (PerkinElmer). The ratio of values obtained at 665 nm and 615 nm was used for calculation of IP1 accumulation: % Effect=(Ratiosample−Ratioblank)/(RatioAMG-1638−Ratioblank)×100. Dose curve was fitted and EC50 of each compound was calculated by using XLFit.

[1] = Pharmacokinetics in mice (IV and PO), plasma LC-MS/MS; format: in vivo, Male ICR (CD-1) mice; details: for Cl / AUC / half-life / Vd: IV (1 mpk); for AUC / half-life / Vd / Cmax / Tmax / bioavailability: male, ICR (CD-1), mouse, plasma; for AUC / half-life / Vd: 1 mg/kg; for half-life: read-out: T½ (converted); for Vd: read-out: Vss; for Cmax / Tmax / bioavailability: 10 mg/kg, PO (10 mpk); for bioavailability: oral bioavailability
Procedure: Male ICR (CD-1) mice at around 4-6 weeks with body weight of around 25 grams (n=3) were purchased from VT-River (Zhejiang, China). After 1-week acclimation, animals were dosed with exemplary compounds intravenously at 1 mpk or orally at 10 mpk (0.5% methylcellulose in PBS as vehicle for both routes of administration). Blood samples (30 μL) were collected via saphenous vein puncture at 5 (IV only), 15, 30, 60, 120, 240, 480, and 1440 min post dose. The blood samples were saved in 0.5 M K2EDTA coated tubes and centrifuged at 4,600 rpm at 4° C. for 5 min. Plasma samples were collected and stored in −80° C. till PK analysis.
Take 10 μL of K2EDTA-treated plasma samples of CD-1 mice, add 200 μL of precipitation solution with internal standard (5 ng/mL Terfenadine in MeOH/ACN), mix well by vortexing for 1 min at room temperature followed by centrifuge at 4° C. and 4000 rpm for 15 min. Save the supernatant as injection for LC-MS/MS quantification of exemplary compounds in plasma samples of mice.
Establish a standard curve before and after each analytical batch, accompanied by quality controls of low, medium, and high concentrations. The number of quality control samples is not less than 6 and should be equal to or more than the number of samples of each batch, and interspersed in sample measurement. Standard curve and quality control samples of each batch must meet the acceptance criteria.

[2] = Plasma drug concentration at end of oGTT study by LC-MS/MS; format: in vivo, Male C57BL/6 mice; details: male, C57BL/6, mouse, 30 mpk oral, 6 h post dose, read-out: Drug conc
Procedure: (§1) Male C57BL/6 mice were purchased from Zhejiang Vital River Laboratories Co., Ltd (a branch of Charles River Laboratories) at around 7-8 weeks of age (n=8). Animal were kept under regular light/dark cycle (12 h light: 12 h dark, L^D) at room temperature and fed regular chow diet and tap water ad libitum in facility for more than one week. On study day, animals were fasted by removing food at 7:00 AM. Blood glucose was measured at 9:00 AM by a glucometer (Roche) via tail bleeding and mice were sorted to groups of treatment based on average blood glucose (˜[…]). The vehicle (0.5% methylcellulose) or exemplary compounds solutions (30 mpk dose) were mixed well and dosed by oral gavage (dosing volume=10 ml/kg body weight). At 1:00 PM, blood glucose was measured by a glucometer (0 min). Animals were then PO dosed with 5 g/kg glucose for oral glucose challenge. Blood glucose was then measured at 20, 40, 60, and 120 min by glucometer. At the end of study, 50 μl tail blood from treatment groups were collected and mixed with 4% sodium citrate (vol 9:1). Tubes were centrifuged in a benchtop centrifuge for 10 min at 8,000 RPM at 4° C. Plasma samples were separated and stored in −80° C. freezer for measurements of PK by LC-MS/MS.

C57BL/6 mice = experiment: oGTT study (oral glucose tolerance test); format: in vivo, Male C57BL/6 mice; details: 30 mpk oral gavage, blood glucose AUC 0-120 minutes after 5 g/kg glucose challenge
Procedure: as §1

T1 sequence (O14842 whole entry): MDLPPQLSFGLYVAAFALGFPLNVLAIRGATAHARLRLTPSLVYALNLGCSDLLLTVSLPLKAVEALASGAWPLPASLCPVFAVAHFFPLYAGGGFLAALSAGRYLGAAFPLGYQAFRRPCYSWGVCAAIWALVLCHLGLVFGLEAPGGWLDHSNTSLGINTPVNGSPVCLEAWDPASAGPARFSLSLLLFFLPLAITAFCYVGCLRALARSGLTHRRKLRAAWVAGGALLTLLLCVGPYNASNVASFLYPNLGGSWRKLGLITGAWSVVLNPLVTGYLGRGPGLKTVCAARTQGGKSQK

Structure (SMILES)	EC50 (GPR40) [nM]	Cl [1] [ml/mL/kg]	AUC [1] [µM·h]	half-life [1] [h]	Vd [1] [L/kg]	Cmax [1] [nM]	Tmax [1] [h]	bioavailability [1] [%]	concentration at 6 h [2] [ng/mL]	% change in AUC over vehicle (C57BL/6 mice) [%]
COc1ccc(C(=O)N(CC(C)(C)CCCCCCCCCCCCCCCCCC(=O)NCCC[N+](C)(CC(=O)NCCN)CC(=O)NCCN)c2cccc(C)n2)c(N2CCC(COc3cc([C@@H](CC(=O)O)C4CC4)ccn3)CC2)c1 [Example 12]	0.17	0.15	33.9	8.9	0.1	80.7	5.3	0.17		
COc1ccc(C(=O)N(CC(C)(C)CCCCCCCCCCCCCCCCCCCC(=O)NCCCN(CC(=O)O)CC(=O)O)c2cccc(C)n2)c(N2CCC(COc3cc([C@@H](CC(=O)O)C4CC4)ccn3)CC2)c1 [Example 13]	0.76	0.14	88.9	6.5	0.07	268	8	0.52		
COc1ccc(C(=O)N(CC(C)(C)CCCCCCCCCCCCCCCCCCCC(=O)NCCC[N+](C)(CC(=O)[O-])CC(=O)O)c2cccc(C)n2)c(N2CCC(COc3cc([C@@H](CC(=O)O)C4CC4)ccn3)CC2)c1 (some centres unmarked) [Example 14]	0.63	0.20	68	6.7	0.09	164	8	0.37		
COc1ccc(C(=O)N(CC(C)(C)CCCCCCCCCCCCCCCCCC(=O)NCC[N+](C)(CCCC(=O)NCCN)CCCC(=O)NCCN)c2cccc(C)n2)c(N2CCC(COc3cc([C@@H](CC(=O)O)C4CC4)ccn3)CC2)c1 [Example 17]		0.10			0.08				237 ± 2	−26.9
COc1ccc(C(=O)N(CC(C)(C)CCCCCCCCCCCCCCCCCC(=O)NCCC[N+]23CCN(CC2)CC3)c2cccc(C)n2)c(N2CCC(COc3cc([C@@H](CC(=O)O)C4CC4)ccn3)CC2)c1 [Example 18, (S)-1-(3-(20-(2-(4-(((4-(2-carboxy-1-cyclopropylethyl)pyridin-2-yl)oxy)methyl)piperidin-1-yl)-4-methoxy-N-(6-methylpyridin-2-yl)benzamido)-19,19-dimethylicosanamido)propyl)-1,4-diazabicyclo[2.2.2]octan-1-ium TFA salt]	0.24	0.32	33.7	5.1	0.11	42	4	0.15	274 ± 99	−26.4
COc1ccc(C(=O)N(CC(C)(C)CCCCCCCCCCCCCCCCCC(=O)NCCC[N+]23CC[N+](C)(CC2)CC3)c2cccc(C)n2)c(N2CCC(COc3cc([C@@H](CC(=O)O)C4CC4)ccn3)CC2)c1 [Example 19]	0.07	0.43	28.5	4.7	0.11	77	4	0.31	347 ± 125	−29.7
COc1ccc(C(=O)N(CC(C)(C)CCCCCCCCCCCCCCCCCCCCCC[N+]23CCN(CC2)CC3)c2cccc(C)n2)c(N2CCC(COc3cc([C@@H](CC(=O)O)C4CC4)ccn3)CC2)c1 [Example 21, (S)-1-(24-(2-(4-(((4-(2-carboxy-1-cyclopropylethyl)pyridin-2-yl)oxy)methyl)piperidin-1-yl)-4-methoxy-N-(6-methylpyridin-2-yl)benzamido)-23,23-dimethyltetracosyl)-1,4-diazabicyclo[2.2.2]octan-1-ium]	2.04	0.67	18.5	7.2	0.36	37	6.7	0.34		
